According to ChEMBL document CHEMBL4428063, “Novel Pyrimidine Toll-like Receptor 7 and 8 Dual Agonists to Treat Hepatitis B Virus” (J Med Chem, 2016):

How the values were obtained:
[1] = target: T1, Toll-like receptor 7 (Homo sapiens) (UniProt Q9NYK1); assay: Agonist activity at human TLR7 expressed in HEK293 cells measured after 6 hrs by NF-kappaB luciferase reporter gene assay; format: cell-based
T1 sequence (whole entry): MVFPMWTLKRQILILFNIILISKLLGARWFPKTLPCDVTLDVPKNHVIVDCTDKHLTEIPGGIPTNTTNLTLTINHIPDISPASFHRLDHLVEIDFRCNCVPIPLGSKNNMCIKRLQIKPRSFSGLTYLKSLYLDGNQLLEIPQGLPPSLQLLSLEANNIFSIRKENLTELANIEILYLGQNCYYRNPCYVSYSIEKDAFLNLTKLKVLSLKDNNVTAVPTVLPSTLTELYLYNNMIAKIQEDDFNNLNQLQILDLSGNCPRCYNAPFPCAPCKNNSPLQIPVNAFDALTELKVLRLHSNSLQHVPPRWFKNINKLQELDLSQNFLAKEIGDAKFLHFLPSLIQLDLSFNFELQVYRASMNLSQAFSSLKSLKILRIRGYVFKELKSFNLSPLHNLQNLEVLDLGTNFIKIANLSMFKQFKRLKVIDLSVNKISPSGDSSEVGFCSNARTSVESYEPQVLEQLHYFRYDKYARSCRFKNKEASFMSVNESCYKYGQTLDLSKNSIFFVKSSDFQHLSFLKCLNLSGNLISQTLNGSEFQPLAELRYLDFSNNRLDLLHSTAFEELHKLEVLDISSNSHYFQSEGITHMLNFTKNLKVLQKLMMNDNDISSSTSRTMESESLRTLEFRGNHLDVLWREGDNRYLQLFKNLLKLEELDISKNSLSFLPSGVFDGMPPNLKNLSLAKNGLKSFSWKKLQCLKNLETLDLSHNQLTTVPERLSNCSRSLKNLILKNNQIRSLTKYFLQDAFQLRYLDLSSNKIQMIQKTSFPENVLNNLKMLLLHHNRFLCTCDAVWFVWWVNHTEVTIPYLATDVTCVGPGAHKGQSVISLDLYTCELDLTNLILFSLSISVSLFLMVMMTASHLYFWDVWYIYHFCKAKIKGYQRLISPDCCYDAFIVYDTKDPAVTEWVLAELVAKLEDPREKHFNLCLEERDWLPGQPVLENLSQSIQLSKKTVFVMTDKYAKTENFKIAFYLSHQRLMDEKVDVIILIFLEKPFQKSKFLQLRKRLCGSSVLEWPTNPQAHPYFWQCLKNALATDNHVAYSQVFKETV

[2] = target: T1, Toll-like receptor 7 (Homo sapiens); assay: Activation of TLR7 in human PBMCs incubated for overnight duration followed by compound-treated cell supernatant conditioned media transfer to HCV1b transfected human HuH7-luc/neo replicon cells assessed as induction of INFalpha-mediated suppression of virus growth by firefly-luciferase reporter gene assay
[3] = target: T2, Toll-like receptor 8 (Homo sapiens) (UniProt Q9NR97); assay: Agonist activity at human TLR8 expressed in HEK293 cells assessed as measured after 6 hrs by NF-kappaB luciferase reporter gene assay; format: cell-based
T2 sequence (whole entry): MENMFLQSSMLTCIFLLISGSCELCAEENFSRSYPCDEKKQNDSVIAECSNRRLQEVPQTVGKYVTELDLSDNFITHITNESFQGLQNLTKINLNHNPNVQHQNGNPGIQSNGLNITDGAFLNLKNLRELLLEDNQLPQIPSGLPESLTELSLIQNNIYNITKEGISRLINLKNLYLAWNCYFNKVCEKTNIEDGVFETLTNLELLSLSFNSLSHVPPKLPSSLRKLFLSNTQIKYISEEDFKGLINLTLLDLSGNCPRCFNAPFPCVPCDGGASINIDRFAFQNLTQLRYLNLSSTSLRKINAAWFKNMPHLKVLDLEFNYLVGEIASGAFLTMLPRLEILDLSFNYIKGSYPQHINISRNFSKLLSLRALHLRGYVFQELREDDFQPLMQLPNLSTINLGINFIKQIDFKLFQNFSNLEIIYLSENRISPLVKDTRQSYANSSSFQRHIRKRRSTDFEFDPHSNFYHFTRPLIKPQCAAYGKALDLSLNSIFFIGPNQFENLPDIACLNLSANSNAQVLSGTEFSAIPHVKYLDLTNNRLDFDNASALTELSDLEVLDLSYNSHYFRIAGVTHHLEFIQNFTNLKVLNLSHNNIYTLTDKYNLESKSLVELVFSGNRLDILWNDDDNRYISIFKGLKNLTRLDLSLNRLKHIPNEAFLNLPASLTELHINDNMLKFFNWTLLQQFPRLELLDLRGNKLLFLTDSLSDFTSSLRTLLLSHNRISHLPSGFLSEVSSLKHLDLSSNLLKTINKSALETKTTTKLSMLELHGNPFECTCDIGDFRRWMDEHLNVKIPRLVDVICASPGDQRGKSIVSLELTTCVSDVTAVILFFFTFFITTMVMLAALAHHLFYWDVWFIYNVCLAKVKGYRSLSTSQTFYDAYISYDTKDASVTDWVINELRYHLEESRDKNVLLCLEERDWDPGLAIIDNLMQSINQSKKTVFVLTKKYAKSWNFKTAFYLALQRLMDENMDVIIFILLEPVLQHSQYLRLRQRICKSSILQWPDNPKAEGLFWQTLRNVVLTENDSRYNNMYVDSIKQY

HEK293 = assay: Agonist activity at human TLR7-dLRR2 mutant expressed in HEK293 cells measured after 6 hrs by NF-kappaB luciferase reporter gene assay; format: cell-based

| SMILES | LED [1] | LED [2] | LED [3] | LED (HEK293) |
| --- | --- | --- | --- | --- |
| CC[C@H](C)[C@@H](CO)Nc1nc(N)ncc1OC | 17.8 µM | 1.7 µM | 0.66 µM |  |
| CCC[C@@H](CO)Nc1nc(N)ncc1OC | 8.4 µM | 0.4 µM | 0.25 µM |  |
| CCCCNc1nc(N)ncc1OCc1nc2ccccc2[nH]1 | 0.032 µM | 0.012 µM | 0.65 µM |  |
| CCCCNc1nc(N)ncc1OC(C)C | 10 µM | 0.5 µM | 0.7 µM |  |
| CCC[C@H](CO)Nc1nc(N)ncc1OC | > 25 µM |  | 9 µM |  |
| CCCCNc1nc(N)ncc1OCc1cnccn1 | 0.51 µM | 0.16 µM | 2.28 µM |  |
| CCCCNc1nc(N)ncc1OCc1ccccc1 | 0.9 µM | 0.39 µM | 2.4 µM |  |
| COc1cnc(N)nc1NCCC1CC1 | > 25 µM | 6.8 µM | 20.9 µM |  |
| CCCCNc1nc(N)ncc1OCc1nccc2ccccc12 | 0.008 µM | 0.003 µM | 0.14 µM |  |
| CCC(C)[C@H](CCO)Nc1nc(N)ncc1OC (some centres undefined) | 10.4 µM | 2.2 µM | 2.6 µM |  |
| CC[C@H](C)CNc1nc(N)ncc1OC | > 25 µM | > 24 µM | > 25 µM |  |
| COc1cnc(N)nc1N[C@H](CO)CC(C)C | > 25 µM | 11 µM | 16 µM |  |
| CCCCNc1nc(N)ncc1OCc1nc2ccccc2s1 | 0.28 µM | 0.11 µM | 2.6 µM |  |
| COc1cnc(N)nc1NCCCC(F)(F)F | 6.5 µM | 1.6 µM | 6.6 µM |  |
| CCCC[C@@H](CO)Nc1nc(N)ncc1OC | 8.01 µM | 0.4 µM | 0.39 µM |  |
| CCC[C@@H](CCO)Nc1nc(N)ncc1OC | 7.3 µM | 0.8 µM | 1.4 µM |  |
| C=CCNc1nc(N)ncc1OC | > 25 µM | 6.2 µM | 8.5 µM |  |
| CCCCNc1nc(N)ncc1OCc1ccc2ccccc2n1 | 0.3 µM | 0.09 µM | 0.89 µM |  |
| CCCCNc1nc(N)ncc1OCc1nccc(OC)c1OC | 0.13 µM | 0.022 µM | 0.6 µM |  |
| CCCCNc1nc(N)nc(C)c1OCc1ccccc1 | 18 µM |  | 7.5 µM |  |
| COc1cnc(N)nc1N[C@H](CCO)CC(C)C | 10.8 µM | 7.5 µM | 2.3 µM |  |
| CCCC(C)Nc1nc(N)ncc1OC (racemic) | > 25 µM | 1.7 µM | 2.8 µM |  |
| CCCCCNc1nc(N)ncc1OCC | 6 µM |  | 3.2 µM |  |
| CCCCNc1nc(N)ncc1OCCCc1ccccc1 | 1.5 µM | 0.25 µM | 7.9 µM |  |

Now from value to compound, other results behind:

| LED [1] | LED [2] | LED [3] | SMILES | LED (HEK293) |
| --- | --- | --- | --- | --- |
| 0.21 µM | 0.037 µM | 1.3 µM | CCCCNc1nc(N)ncc1OCc1cc2ccccn2n1 |  |
| 3.1 µM | 0.38 µM | 1 µM | CCCCNc1nc(N)ncc1OCc1c(C)noc1C |  |
| 0.29 µM | 0.07 µM | 0.74 µM | CCCCNc1nc(N)ncc1OCc1csc(C)n1 |  |
| 6.2 µM | 4.8 µM | 4.5 µM | CCCCNc1nc(N)ncc1OCCC |  |
| 0.7 µM | 0.39 µM | 0.92 µM | CCCCNc1nc(N)ncc1OCc1cc(C)nn1C |  |
| 7 µM |  | 13.7 µM | CCCCNc1nc(N)ncc1OCc1cnn(C)c1 |  |
| 0.46 µM |  | 1.58 µM | CCCCNc1nc(N)ncc1OCc1nc(C)oc1C |  |
| 0.014 µM | 0.011 µM | 0.18 µM | CCCCNc1nc(N)ncc1OCc1nn(C)c2ccccc12 |  |
| 4.7 µM |  | 1.1 µM | CCCCNc1nc(N)ncc1OCC | 1.6 µM |
| 2.87 µM |  | 3.6 µM | CCCCNc1nc(N)ncc1OCc1ncco1 |  |
| 0.52 µM | 0.12 µM | 0.83 µM | CCCCNc1nc(N)ncc1OCc1cccnn1 |  |
